Test results from patent US8765799B2, “Streptospirole derivatives” (Sanofi, priority 2008, dated 2014).
≈ marks a conversion by molar mass, not a printed value.

Legend:
M. smegmatis (ATCC 607) = experiment: Broth microdilution IC50 determination, M. smegmatis; format: cell-based, Mycobacterium smegmatis; settings: Mycolicibacterium smegmatis, ATCC607, assay mode Lum. (ATP level), 48 h incubation
Source text: (§1) A test which is based on determining the intracellular concentration of ATP is employed for measuring the bacterial viability. It relies on the fact that intact living bacteria have higher intra-cellular ATP levels than bacterial cells which are damaged by the action of antimicrobials. The formulation of the reagent supports bacterial cell lysis and ATP is quantified luminometrically by a luciferin/luciferase reaction. The compounds of the formula (I) are used in a test as further outlined in Examples section in a single dose of 0.125-64μg/ml and a dose dependency is given as a IC50 value in Table 6. This Example describes the standard broth dilution method-microdilution used to determine the in vitro susceptibility of bacteria growing aerobically according to NCCLS M7-A7. The IC50 value of the compound to be tested is calculated as the inhibitory concentration of 50% at which 50% visible turbidity or the ATP level is inhibited. Compound stock solutions were prepared at concentrations of at least 1000μg/ml with methanol. After testing, the stock solution is aliquoted and stored at −80° C. Nystatin was dissolved in DMSO and then further dissolved in the respective culture medium. For every test strain following controls on each 384 well clear-transparent microtitration plate are needed: • drug-free growth control, • sterile control, and • Ciprofloxacin and Nystatin as reference compounds. For Mycobacterium smegmatis a special 384 well white microtitration plate was used. For an IC50 determination at least ten or twenty serial dilutions (geometrical dilution with factor 2) were prepared. [table] […] The exact colony number of each strain was determined by a surface culture method. […] Reading: The reading of the grown wells was done by means of a photometer for microtitration plates at 590 nm by absorbance mode. For Mycobacterium smegmatis the microtitration plates were measured by luminescence mode after incubation with 20μl BacTiter-Glo™/well for 5 minutes at room temperature protected from light. Evaluation: The IC50 values were determined in XLfit 4, model function 205.

S. aureus (ATCC 29213) = experiment: Broth microdilution IC50 determination, S. aureus ATCC 29213; format: cell-based; settings: Staphylococcus aureus, ATCC29213, assay mode Abs. (590 nm), 20 h incubation
Procedure: as §1, with “The” for “A test which is based on determining the intracellular concentration of ATP is employed for measuring the bacterial viability. It relies on the fact that intact living bacteria have higher intra-cellular ATP levels than bacterial cells which are damaged by the action of antimicrobials. The formulation of the reagent supports bacterial cell lysis and ATP is quantified luminometrically by a luciferin/luciferase reaction. The”, “For” for “For Mycobacterium smegmatis a special 384 well white microtitration plate was used. For”, “[table] The usual test concentrations range from 64 to 0.125μg/ml or 64 to 0.0001μg/ml for strong inhibition. At the specification of the concentration the inoculation volume has to be considered. The whole test volume (compound solution and inoculum) was prepared with 40μl and accordingly for Mycobacterium smegmatis 20μl. The serial dilutions with Ciprofloxacin and Nystatin were prepared in special 384 well clear-transparent microtitration plate and were transferred in each 384 well microtitration plate before inoculation.” for “[table]”

S. aureus (ATCC 33592) = experiment: Broth microdilution IC50 determination, S. aureus ATCC 33592; format: cell-based; settings: Staphylococcus aureus, ATCC33592, assay mode Abs. (590 nm)
Procedure: as §1, with “The” for “A test which is based on determining the intracellular concentration of ATP is employed for measuring the bacterial viability. It relies on the fact that intact living bacteria have higher intra-cellular ATP levels than bacterial cells which are damaged by the action of antimicrobials. The formulation of the reagent supports bacterial cell lysis and ATP is quantified luminometrically by a luciferin/luciferase reaction. The”, “For” for “For Mycobacterium smegmatis a special 384 well white microtitration plate was used. For”, “The usual test concentrations range from 64 to 0.125μg/ml or 64 to 0.0001μg/ml for strong inhibition. At the specification of the concentration the inoculation volume has to be considered. The whole test volume (compound solution and inoculum) was prepared with 40μl and accordingly for Mycobacterium smegmatis 20μl. The serial dilutions with Ciprofloxacin and Nystatin were prepared in special 384 well clear-transparent microtitration plate and were transferred in each 384 well microtitration plate before inoculation.” for “[table]”

E. faecalis (ATCC 29212) = experiment: Broth microdilution IC50 determination, E. faecalis; format: cell-based; settings: Enterococcus faecalis, ATCC29212, assay mode Abs. (590 nm), 20 h incubation
Procedure: as §1, with “The” for “A test which is based on determining the intracellular concentration of ATP is employed for measuring the bacterial viability. It relies on the fact that intact living bacteria have higher intra-cellular ATP levels than bacterial cells which are damaged by the action of antimicrobials. The formulation of the reagent supports bacterial cell lysis and ATP is quantified luminometrically by a luciferin/luciferase reaction. The”, “For” for “For Mycobacterium smegmatis a special 384 well white microtitration plate was used. For”, “[table] The usual test concentrations range from 64 to 0.125μg/ml or 64 to 0.0001μg/ml for strong inhibition. At the specification of the concentration the inoculation volume has to be considered. The whole test volume (compound solution and inoculum) was prepared with 40μl and accordingly for Mycobacterium smegmatis 20μl. The serial dilutions with Ciprofloxacin and Nystatin were prepared in special 384 well clear-transparent microtitration plate and were transferred in each 384 well microtitration plate before inoculation.” for “[table]”

[1] = tested on: S. pneumoniae (DSMZ 11865); experiment: Broth microdilution IC50 determination, S. pneumoniae; format: cell-based; settings: Streptococcus pneumoniae, DSMZ11865, assay mode Lum.
Source text: as §1, with “For” for “For Mycobacterium smegmatis a special 384 well white microtitration plate was used. For”, “The usual test concentrations range from 64 to 0.125μg/ml or 64 to 0.0001μg/ml for strong inhibition.” for “[table]”

S. pyogenes (ATCC 12344) = experiment: Broth microdilution IC50 determination, S. pyogenes; format: cell-based; settings: Streptococcus pyogenes, ATCC12344, assay mode Abs. (590 nm), 20 h incubation
Procedure: as §1, with “The” for “A test which is based on determining the intracellular concentration of ATP is employed for measuring the bacterial viability. It relies on the fact that intact living bacteria have higher intra-cellular ATP levels than bacterial cells which are damaged by the action of antimicrobials. The formulation of the reagent supports bacterial cell lysis and ATP is quantified luminometrically by a luciferin/luciferase reaction. The”, “For” for “For Mycobacterium smegmatis a special 384 well white microtitration plate was used. For”, “[table] The usual test concentrations range from 64 to 0.125μg/ml or 64 to 0.0001μg/ml for strong inhibition. At the specification of the concentration the inoculation volume has to be considered. The whole test volume (compound solution and inoculum) was prepared with 40μl and accordingly for Mycobacterium smegmatis 20μl. The serial dilutions with Ciprofloxacin and Nystatin were prepared in special 384 well clear-transparent microtitration plate and were transferred in each 384 well microtitration plate before inoculation.” for “[table]”

Row | IC50 (M. smegmatis (ATCC 607)) | IC50 (S. aureus (ATCC 29213)) | IC50 (S. aureus (ATCC 33592)) | IC50 (E. faecalis (ATCC 29212)) | IC50 [1] | IC50 (S. pyogenes (ATCC 12344)) | Structure (SMILES)
1 | 0.4 µg/mL (≈ 1.04 µM) | 0.08 µg/mL (≈ 0.208 µM) | 0.03 µg/mL (≈ 0.0781 µM) | 0.87 µg/mL (≈ 2.26 µM) | 0.28 µg/mL (≈ 0.729 µM) | 0.28 µg/mL (≈ 0.729 µM) | CCCCCCc1c(O)ccc2c1O[C@]1(C2=O)C(Cl)=C(Cl)C(=O)N1C [(II), Streptospirole A]
2 | 0.26 µg/mL (≈ 0.677 µM) | 0.05 µg/mL (≈ 0.13 µM) | 0.02 µg/mL (≈ 0.052 µM) | 0.59 µg/mL (≈ 1.54 µM) | 0.34 µg/mL (≈ 0.885 µM) | 0.12 µg/mL (≈ 0.312 µM) | CC(C)CCCc1c(O)ccc2c1O[C@]1(C2=O)C(Cl)=C(Cl)C(=O)N1C [(III), Streptospirole B]
3 | 0.09 µg/mL (≈ 0.226 µM) | 0.005 µg/mL (≈ 0.0126 µM) | 0.003 µg/mL (≈ 0.00753 µM) | 0.07 µg/mL (≈ 0.176 µM) | 0.21 µg/mL (≈ 0.527 µM) | 0.04 µg/mL (≈ 0.1 µM) | CC[C@H](C)CCCc1c(O)ccc2c1O[C@]1(C2=O)C(Cl)=C(Cl)C(=O)N1C [(IV), Streptospirole C]
